According to patent US9018192B2, “Unitary pharmaceutical dosage form” (Bristol-Myers Squibb & Gilead Sciences, LLC, priority 2005, dated 2015):
Counter-ions that a name gives are not always drawn.

Experiment: chemical stability of tenofovir DF in the dosage form (stability studies)
Type: physicochemical

compatibility of efavirenz formulation with tenofovir DF (attributed to the surfactant sodium lauryl sulfate in the efavirenz portion): unexpectedly incompatible
stability of tenofovir DF in preparation (increased proportion of excipients, wet granulation of the three API combination): highly unstable
stability of tenofovir DF in combination tablet (three drugs in unitary, essentially homogeneous composition manufactured by wet granulation, stability studies): highly unstable and rapidly degraded
Compound: CC(C)OC(=O)OCOP(=O)(CO[C@H](C)Cn1cnc2c(N)ncnc21)OCOC(=O)OC(C)C [tenofovir DF, tenofovir disoproxil fumarate]
